From patent US20250127845A1, “MEDICINAL USES OF OLIGOPEPTIDES IN COMBINATION WITH AN ANTIANDROGEN” (HBC IMMUNOLOGY INC., priority 2022, published 2025)
Where “and” joins values, the source holds several entries; their conditions need not be identical. Equal values may be shown once.

Legend:
Format in all cases: cell-based, human
[1] = tested on: ferritin heavy chain 1 (FTH1) mRNA; test: FTH1 gene expression by qRT-PCR in VCaP cells; conditions: oligopeptide at 10 μM with […] ENZ
Protocol: (§1) Gene Expression. LNCaP, PC-3, VCaP, and VCaP-EnzR cells were seeded in 24-well plates and maintained in RPMI1640 medium supplemented with 2 mmol/L L-glutamine. 100 U/mL penicillin, […] streptomycin, and 10% heat-inactivated fetal bovine serum at 37° C. in a humidified 5% CO2 atmosphere. […] SPH absent wells (DMSO 0.04%) were used as the negative control. All experiments were run in triplicate.
(§2) Samples were studied for expression of the ferritin heavy chain 1 (FTH1) and transferrin receptor 1 ([…]) genes. Total RNA was extracted from cell pellets using the UPzol reagent (Biotechrabbit), followed by DNAse treatment (DNAse TURBO) according to the manufacturers' protocols. Complementary DNA (cDNA) was synthesized with the High Capacity cDNA Reverse Transcription Kit (Applied Biosystems) using random hexamers. Gene expression levels were measured by qRT-PCR.
(§3) 1 μl of cDNA (corresponding to 50 ng of reverse transcribed RNA) was amplified by Qpcr (QuantStudio™ 6 Flex Real-Time PCR System), using TaqMan™ Universal PCR Master Mix (Catalog No. 4304437) and a TaqMan™ assay (Roche Molecular Systems, Inc., Pleasanton, CA). FTH1 and TFRC gene expression was estimated relative to expression of the housekeeping gene, beta-actin (ACTB), following the standard formula: 2-ΔCt. TaqMan probe IDs used include: (i) FTH1, Hs01694011_s1; (ii) TFRC, Hs00951083_m1; and (iii) ACTB, Hs01060665_g1. […]

PC3 cells = test: Clonogenic assay, PC3 cells; conditions: PC3; 10 μM oligopeptide with 10 μM bicalutamide
Protocol: (§4) Test Solutions. SPH test solutions were prepared by adding 10 μg, 40 μg, or 160 μg of SPH powder to 1 ml of DMEM containing 0.3% FBS+2% DMSO and sonicating for 10 min just prior to use. Bicalutamide, referred to herein as BIC, (Sigma-Aldrich, Catalog No. B9061) test solutions were prepared by adding 0.43 or 4.3 μg to 1 ml (1 μM and 10 μM) of DMEM containing 0.3% FBS+2% DMSO and sonicating for 10 min just prior to use.
Cell Culture. The C4 subline (CRL-3313™, RRID: CVCL 4783), which was derived from the human prostate carcinoma cell line LNCaP, was obtained from ATCC (Manassas, VA). C4, which is referred to herein as LNCaP, is an exemplary androgen receptor-positive (AR+ve) cell line that has an epithelial-like morphology and a low metastatic potential. The PC-3 cell line (CRL-1435, RRID: CVCL_0035) was obtained from ATCC (Manassas, VA). PC-3 is an exemplary androgen receptor-negative (AR−ve) cell line that has an epithelial morphology and a high metastatic potential. The Vertebral-Cancer of the Prostate (VCaP) cell line was obtained from Sigma-Aldrich, USA (Catalog No. 06020201). VCaP is a human cell line with an epithelial morphology that was established from a metastatic prostate cancer lesion (Korenchuk et al., In Vivo, 15(2):163˜168, 2001). VCaP cells are androgen receptor-positive and express high levels of prostate-specific antigen. The VCaP-EnzR cell line was also obtained from Sigma-Aldrich, USA (Catalog No. SCC421). […] VCaP-EnzR cells are enzalutamide-resistant and therefore are a suitable model for studying castration-resistant prostate cancer. All cell lines were cultured in RPMI1640 supplemented with 2 mmol/L L-glutamine. 100 U/mL penicillin, […] streptomycin, and 10% heat-inactivated fetal bovine serum. All cells were certified negative for Mycoplasma.
Clonogenic Assay. Confluent cells were trypsinized and seeded at densities ranging from 3000 to 5000 cells in 10 cm Petri dishes, depending on the cell line, as recommended in the ATCC or Sigma-Aldrich product sheets. […] Treatments were applied daily for 5 days without media changes. The colonies were allowed to develop over 12 days, stained with crystal violet and automatically counted using a TC20 Automated Cell Counter (Bio Rad, Hercules, CA). Each assay was internally controlled using untreated cells (cell media+0.1% DMSO). Relative plating efficiencies were expressed as percentages relative to the plating efficiency of untreated cells and reported as the relative percent colony survival value. All experiments were performed in triplicate.
All oligopeptides were tested in combination with BIC or ENZ in clonogenic assays. […] SPH absent wells (DMSO 0.04%) were used as the negative control. All experiments were run in triplicate.

[2] = tested on: transferrin receptor 1 (TFRC) mRNA; test: TFRC gene expression by qRT-PCR in VCaP-EnzR cells; conditions: oligopeptide at 10 μM with […] μM ENZ
Protocol: as §1, §2, §3

VCaP-EnzR cells = test: Clonogenic assay, VCaP-EnzR cells; conditions: 10 μM oligopeptide with […] μM enzalutamide, p<0.001
Protocol: as §4
(§5) Cell Culture. The C4 subline (CRL-3313™, RRID: CVCL 4783), which was derived from the human prostate carcinoma cell line LNCaP, was obtained from ATCC (Manassas, VA). C4, which is referred to herein as LNCaP, is an exemplary androgen receptor-positive (AR+ve) cell line that has an epithelial-like morphology and a low metastatic potential. The PC-3 cell line (CRL-1435, RRID: CVCL_0035) was obtained from ATCC (Manassas, VA). PC-3 is an exemplary androgen receptor-negative (AR−ve) cell line that has an epithelial morphology and a high metastatic potential. The Vertebral-Cancer of the Prostate (VCaP) cell line was obtained from Sigma-Aldrich, USA (Catalog No. 06020201). […]
(§6) Clonogenic Assay. […] The colonies were allowed to develop over 12 days, stained with crystal violet and automatically counted using a TC20 Automated Cell Counter (Bio Rad, Hercules, CA). […]

[3] = tested on: transferrin receptor 1 (TFRC) mRNA; test: TFRC gene expression by qRT-PCR in LNCaP cells; conditions: oligopeptide at 10 μM with 0.4 μM BIC
Protocol: as §1, §2, §3

[4] = tested on: transferrin receptor 1 (TFRC) mRNA; test: TFRC gene expression by qRT-PCR in VCaP cells; conditions: oligopeptide at 10 μM with […] ENZ
Protocol: as §1, §2, §3

VCaP cells = test: Clonogenic assay, VCaP cells; conditions: 10 μM oligopeptide with […] enzalutamide, p<0.01
Protocol: as §4, §5, §6

[5] = tested on: ferritin heavy chain 1 (FTH1) mRNA; test: FTH1 gene expression by qRT-PCR in VCaP-EnzR cells; conditions: oligopeptide at 10 μM with […] μM ENZ
Protocol: as §1, §2, §3

[6] = tested on: ferritin heavy chain 1 (FTH1) mRNA; test: FTH1 gene expression by qRT-PCR in LNCaP cells; conditions: oligopeptide at 10 μM with 0.4 μM BIC
Protocol: as §1, §2, §3

[7] = tested on: ferritin heavy chain 1 (FTH1) mRNA; test: FTH1 gene expression by qRT-PCR in PC3 cells; conditions: oligopeptide at 10 μM with 10 μM BIC
Protocol: as §1, §2, §3

[8] = tested on: transferrin receptor 1 (TFRC) mRNA; test: TFRC gene expression by qRT-PCR in PC3 cells; conditions: oligopeptide at 10 μM with 10 μM BIC
Protocol: as §1, §2, §3

Substance	FTH1 Fold Change, Average [1]	decrease in survival compared to 10 μM bicalutamide monotreatment (PC3 cells)	TFRC Fold Change, Average [2]	relative survival (VCaP-EnzR cells) [%]	TFRC Fold Change, Average [3]	TFRC Fold Change (single replicates) ([3]; listed as FT-005-B)	TFRC Fold Change, Average [4]	decrease in cell survival compared to […] enzalutamide with 160 SPH (VCaP cells)	FTH1 Fold Change, Average [5]	FTH1 Fold Change, Average [6]	FTH1 Fold Change (single replicates) ([6]; listed as FT-005-B)	FTH1 Fold Change, Average [7]	FTH1 Fold Change (single replicates) ([7]; listed as FT-005-B)	TFRC Fold Change, Average [8]	TFRC Fold Change (single replicates) ([8]; listed as FT-005-B)	TFRC Fold Change (single replicates) [3]	FTH1 Fold Change (single replicates) ([6]; listed as FT-002-B)	FTH1 Fold Change (single replicates) ([7]; listed as FT-002-B)	TFRC Fold Change (single replicates) ([8]; listed as FT-002-B)
LDEESGEP [FT-005, synthetic oligopeptide; -B / -E: tested with bicalutamide / enzalutamide]	2.3	approximately 70%	0.5	11	0.6	0.7 and 0.6 (2×)	0.6	approximately 40%	3.2	2.2	2.2 (2×) and 2.3	2.1	2.2 and 2.1 (2×)	0.6	0.7 and 0.5 (2×)				
REESGEP [FT-002, synthetic oligopeptide; -B / -E: tested with bicalutamide / enzalutamide]	2.2	approximately 70%	0.5	11	0.7		0.6	approximately 40%	3.6	2.0		2.0		0.7		0.7	2.1 (2×) and 1.9	2.0 (2×) and 2.1	0.7 and 0.8 and 0.6
